One block for each compound: values may come before it.
Experiments:
PRMT5/MEP50 complex [1] = molecular target: T1, PRMT5/MEP50 complex (Homo sapiens (Human), UniProt O14744); test: PRMT5:MEP50 FlashPlate Assay (histone H4 peptide, plus and minus MTA); format: biochemical
Method: (§1) The PRMT5 inhibitory activity of compounds of the present invention was determined using either a PRMT5:MEP50 FlashPlate Assay (Reaction Biology Corporation) or a PRMT5:MEP50 HotSpot Assay (Reaction Biology Corporation).
1. PRMT5:MEP50 FlashPlate Assay

PRMT5/MEP50 complex [2] = molecular target: T1, PRMT5/MEP50 complex; test: PRMT5:MEP50 HotSpot Assay (full-length histone H2A, plus and minus MTA); format: biochemical
Method: as §1
The assay uses recombinant full-length histone H2A as the PRMT5 substrate. […] The reaction was stopped and transferred to filter paper for detection. The amount of tritiated H2A in each sample was determined using a scintillation counter.

[3] = in the absence of MTA, read-out: IC50
[4] = read-out: IC50 + 2 μM MTA, in the presence of 2 μM MTA

T1 sequence (O14744 whole entry): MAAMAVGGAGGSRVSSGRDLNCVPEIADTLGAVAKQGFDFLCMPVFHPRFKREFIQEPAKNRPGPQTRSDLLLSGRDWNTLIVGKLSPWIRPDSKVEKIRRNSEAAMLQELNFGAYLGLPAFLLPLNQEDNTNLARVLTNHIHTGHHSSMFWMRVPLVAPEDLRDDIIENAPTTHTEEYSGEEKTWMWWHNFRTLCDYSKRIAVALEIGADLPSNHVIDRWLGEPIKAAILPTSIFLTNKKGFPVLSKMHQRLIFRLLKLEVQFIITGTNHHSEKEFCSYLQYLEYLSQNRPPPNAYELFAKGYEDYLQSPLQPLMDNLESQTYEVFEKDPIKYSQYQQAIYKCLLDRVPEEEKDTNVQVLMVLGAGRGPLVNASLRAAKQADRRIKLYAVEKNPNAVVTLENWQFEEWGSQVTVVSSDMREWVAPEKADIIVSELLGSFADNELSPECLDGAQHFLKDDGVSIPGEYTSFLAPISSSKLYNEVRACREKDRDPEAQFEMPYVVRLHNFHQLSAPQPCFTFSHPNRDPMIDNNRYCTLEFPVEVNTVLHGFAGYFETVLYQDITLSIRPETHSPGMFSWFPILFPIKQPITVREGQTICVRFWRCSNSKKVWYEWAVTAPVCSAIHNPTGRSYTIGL
T1 sequence (Q9BQA1 whole entry partner): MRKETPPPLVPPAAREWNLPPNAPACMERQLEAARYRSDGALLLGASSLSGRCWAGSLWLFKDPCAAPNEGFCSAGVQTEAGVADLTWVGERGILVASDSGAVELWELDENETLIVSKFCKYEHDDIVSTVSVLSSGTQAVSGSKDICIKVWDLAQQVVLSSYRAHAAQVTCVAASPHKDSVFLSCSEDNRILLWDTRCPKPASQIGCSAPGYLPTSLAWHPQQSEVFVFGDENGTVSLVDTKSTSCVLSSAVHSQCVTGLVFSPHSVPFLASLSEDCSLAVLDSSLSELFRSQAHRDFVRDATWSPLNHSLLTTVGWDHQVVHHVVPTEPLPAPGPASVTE

- IC50 (PRMT5/MEP50 complex [1]; [3]): 4.94 µM
- IC50 (PRMT5/MEP50 complex [1]; [4]): 0.37 µM
SMILES: Cc1cc2c(=O)[nH]nc(CN)c2cc1-c1cncc(C#N)c1 [Example 3-38]

- IC50 (PRMT5/MEP50 complex [2]; [3]): > 10 µM
SMILES: Cn1ncc(-c2ccc3c(=O)[nH]nc(CN)c3c2)c1-c1ccccc1C#N [Example 4-100, 2-(4-(4-(aminomethyl)-1-oxo-1,2-dihydrophthalazin-6-yl)-1-methyl-1H-pyrazol-5-yl)benzonitrile]

- IC50 (PRMT5/MEP50 complex [1]; [3]): > 100 µM
SMILES: Cc1nc2cncc(-c3ccc4c(=O)[nH]nc(CN)c4c3)c2o1 [Example 4-110, 4-(aminomethyl)-6-(2-methyloxazolo[4,5-c]pyridin-7-yl)phthalazin-1(2H)-one]

- IC50 (PRMT5/MEP50 complex [2]; [4]): > 10 µM
SMILES: Cn1ncc(-c2ccc3c(=O)[nH]nc([C@H](N)C(F)F)c3c2)c1-c1ccc2ccccc2c1C#N [Example 9-6, 2-[4-[4-[(1S)-1-amino-2,2-difluoro-ethyl]-1-oxo-2H-phthalazin-6-yl]-2-methyl-pyrazol-3-yl]naphthalene-1-carbonitrile]

Reference: patent publication US11492351B2, “MTA-cooperative PRMT5 inhibitors” (Mirati Therapeutics, Inc., priority 2019, dated 2022)
